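Following 48 hours of exposure in 96-well plates, responses at five concentrations were used to interpolate endpoints linearly. GI50: concentration for 50% inhibition of growth.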 Calls of active or inactive are those of the source. Cut-off read from the data, not from the text of the source: active = GI50 up to about 1.1 µM and inactive = higher.
Tests used:
Assay in all cases: NCI anticancer screen, dose series, 48 h
[1] = test system: DU-145
[2] = test system: TK-10
[3] = test system: EKVX
[4] = test system: OVCAR-3
[5] = test system: IGROV-1
[6] = test system: COLO 205
[7] = test system: 786-0
[8] = test system: MCF7
[9] = test system: A549
[10] = test system: Malme-3M
[11] = test system: NCI-H460
[12] = test system: UACC-257
[13] = test system: BT-549
[14] = test system: SF-268
[15] = test system: NCI-H23
[16] = test system: OVCAR-4
[17] = test system: SW-620
[18] = test system: HT-29
[19] = test system: MDA-MB-435
[20] = test system: A498

Structure (SMILES) | GI50 [1] | GI50 [2] | GI50 [3] | GI50 [4] | GI50 [5] | GI50 [6] | GI50 [7] | GI50 [8] | GI50 [9] | GI50 [10] | GI50 [11] | GI50 [12] | GI50 [13] | GI50 [14] | GI50 [15] | GI50 [16] | GI50 [17] | GI50 [18] | GI50 [19] | GI50 [20]
Cn1/c(=N\N=C(\CNCCO)[C@@H](O)[C@@H]2OC(c3ccccc3)OC[C@H]2O)sc2ccccc21 (stereo partly drawn) | 18.5 µM (inactive) | 18.5 µM (inactive) | 15.4 µM (inactive) | 16.4 µM (inactive) | 15.8 µM (inactive) | 15.5 µM (inactive) | 18 µM (inactive) | 16.7 µM (inactive) | 15.8 µM (inactive) | 17.7 µM (inactive) | 21.5 µM (inactive) | 19.6 µM (inactive) | 21.1 µM (inactive) | 15.5 µM (inactive) | 20 µM (inactive) | 23.9 µM (inactive) | 18 µM (inactive) | 18.6 µM (inactive) | 17.9 µM (inactive) | 
Nc1ccc2c(c1)C(=O)c1c(F)cccc1-2 | 45 µM (inactive) | 47.2 µM (inactive) | 0.656 µM (active) | 25.9 µM (inactive) |  | 44.3 µM (inactive) | 29.4 µM (inactive) | 10.1 µM (inactive) | 96.6 µM (inactive) | 38.4 µM (inactive) | 31 µM (inactive) | > 100 µM (inactive) | 39.3 µM (inactive) | 17.9 µM (inactive) | 61.8 µM (inactive) |  | 34.5 µM (inactive) | 27.7 µM (inactive) | > 100 µM (inactive) | > 100 µM (inactive)
O=C1NC(=S)NC(=O)C1C(c1ccc(O)cc1)C1C(=O)NC(=S)NC1=O.c1ccncc1 | > 100 µM (inactive) | > 100 µM (inactive) |  | > 100 µM (inactive) | > 100 µM (inactive) | > 100 µM (inactive) | > 100 µM (inactive) | > 100 µM (inactive) | > 100 µM (inactive) | > 100 µM (inactive) | > 100 µM (inactive) | > 100 µM (inactive) | > 100 µM (inactive) |  | > 100 µM (inactive) | > 100 µM (inactive) | > 100 µM (inactive) | > 100 µM (inactive) | > 100 µM (inactive) | > 100 µM (inactive)
Cc1cc2nc3[nH]c4c(Cl)cc(Cl)cc4c3nc2cc1C | 86.3 µM (inactive) | 17.3 µM (inactive) | > 100 µM (inactive) | > 100 µM (inactive) | > 100 µM (inactive) | > 100 µM (inactive) | > 100 µM (inactive) | > 100 µM (inactive) | > 100 µM (inactive) | > 100 µM (inactive) | > 100 µM (inactive) |  | 98.4 µM (inactive) | > 100 µM (inactive) | > 100 µM (inactive) | > 100 µM (inactive) | > 100 µM (inactive) | > 100 µM (inactive) | > 100 µM (inactive) | > 100 µM (inactive)
CN(Cc1ccccc1)C(=S)S [SODIUM BENZYL(METHYL)CARBAMODITHIOATE] | 53.5 µM (inactive) |  | 47 µM (inactive) | 32 µM (inactive) | 52.2 µM (inactive) | 57.3 µM (inactive) | 19.2 µM (inactive) | 45.5 µM (inactive) | 33.5 µM (inactive) | 38.7 µM (inactive) | 40.1 µM (inactive) | 53.2 µM (inactive) | 77.4 µM (inactive) | 53.3 µM (inactive) | 45.1 µM (inactive) | 28.4 µM (inactive) | 51.3 µM (inactive) | 37.5 µM (inactive) | 43.2 µM (inactive) | > 100 µM (inactive)
Cc1ccc2ccccc2c1CC1S(=O)(=O)OCCOS1(=O)=O | 11.9 µM (inactive) | 16.6 µM (inactive) | 16.2 µM (inactive) | 6.89 µM (inactive) |  | 2.43 µM (inactive) | 16.4 µM (inactive) | 7.69 µM (inactive) | 13.5 µM (inactive) | 11.5 µM (inactive) | 9.57 µM (inactive) | 18.2 µM (inactive) | 11.2 µM (inactive) |  | 16 µM (inactive) | 11.2 µM (inactive) |  | 11.4 µM (inactive) | 8.67 µM (inactive) | 
C[C@@H]1CC[C@@H]2[C@@H](C1)O[C@@H]([C@H](C)OCc1ccccc1)SC2(C)C | 37.3 µM (inactive) | 32.1 µM (inactive) | 45 µM (inactive) |  | 41.8 µM (inactive) | 19.3 µM (inactive) | 21.2 µM (inactive) | 16.9 µM (inactive) | 26.3 µM (inactive) | 22.6 µM (inactive) | 20.7 µM (inactive) | 25.5 µM (inactive) | 39.4 µM (inactive) | 32.3 µM (inactive) | 31.8 µM (inactive) | 28.3 µM (inactive) | 18.9 µM (inactive) | 36 µM (inactive) | 30.3 µM (inactive) | 19.7 µM (inactive)
C=CCC1(O)c2cccc(O)c2C(=O)c2c(O)cccc21 | 29.9 µM (inactive) | 32.7 µM (inactive) | 27.5 µM (inactive) | 47.9 µM (inactive) | 45.9 µM (inactive) |  | 35.8 µM (inactive) | 30.1 µM (inactive) | 24 µM (inactive) |  | 31.8 µM (inactive) | 23 µM (inactive) | 29.6 µM (inactive) | 32.7 µM (inactive) | 24.7 µM (inactive) | 28.4 µM (inactive) | 31.6 µM (inactive) | 22.6 µM (inactive) | 9.51 µM (inactive) | 29 µM (inactive)
NNc1nncc2[nH]cnc12 | > 100 µM (inactive) | > 100 µM (inactive) | > 100 µM (inactive) | > 100 µM (inactive) | > 100 µM (inactive) | > 100 µM (inactive) | > 100 µM (inactive) | > 100 µM (inactive) | > 100 µM (inactive) |  | > 100 µM (inactive) | > 100 µM (inactive) | > 100 µM (inactive) | > 100 µM (inactive) | > 100 µM (inactive) |  | > 100 µM (inactive) | > 100 µM (inactive) | > 100 µM (inactive) | > 100 µM (inactive)
O=C1c2ccccc2-c2c1c1ccccc1c(=O)n2Cc1ccccc1 | 81.5 µM (inactive) | 40.7 µM (inactive) | > 100 µM (inactive) | > 100 µM (inactive) | 64.4 µM (inactive) | > 100 µM (inactive) | 28.6 µM (inactive) | > 100 µM (inactive) | > 100 µM (inactive) | > 100 µM (inactive) |  | 79.4 µM (inactive) | 62.7 µM (inactive) | 58.5 µM (inactive) | 68.2 µM (inactive) | 14.5 µM (inactive) | > 100 µM (inactive) | > 100 µM (inactive) | > 100 µM (inactive) | 49.1 µM (inactive)
COc1cc(/C=C\c2ccc(SC)cc2)cc(OC)c1OC | 0.043 µM (active) | 23.7 µM (inactive) | 6.97 µM (inactive) | 0.0128 µM (active) | 0.0632 µM (active) | 0.0271 µM (active) | 0.0221 µM (active) | 0.201 µM (active) | 0.0215 µM (active) | 0.381 µM (active) | 0.0171 µM (active) |  | < 0.01 µM (active) | 0.0406 µM (active) | 0.0268 µM (active) | 10.7 µM (inactive) | < 0.01 µM (active) | < 0.0137 µM (active) | < 0.01 µM (active) | 0.883 µM (active)
C/C=C/C/C=C/CCC(=O)C1OC1C(N)=O (stereo not drawn) | 17.5 µM (inactive) | 13.2 µM (inactive) | 18.9 µM (inactive) | 18.7 µM (inactive) | 16.4 µM (inactive) | 18.9 µM (inactive) | 13.1 µM (inactive) | 14.5 µM (inactive) | 20.7 µM (inactive) | 17.8 µM (inactive) | 12.8 µM (inactive) | 17.3 µM (inactive) | 12.2 µM (inactive) | 12.5 µM (inactive) | 14.9 µM (inactive) | 11.6 µM (inactive) | 19.8 µM (inactive) | 17.3 µM (inactive) | 14.1 µM (inactive) | 
Cn1c(=O)c2c(nc3n(CC(O)CCl)c(=O)ccn23)n(C)c1=O (stereo not drawn) | 28.8 µM (inactive) | 89.3 µM (inactive) | 42.9 µM (inactive) | 77.1 µM (inactive) | 20.8 µM (inactive) | 36.8 µM (inactive) | 26.4 µM (inactive) | 40.4 µM (inactive) | 64 µM (inactive) |  | 29.9 µM (inactive) | 76.6 µM (inactive) | > 100 µM (inactive) | 20.5 µM (inactive) | 42.7 µM (inactive) | 61.8 µM (inactive) | 46.8 µM (inactive) | 30.8 µM (inactive) | 47.8 µM (inactive) | 54.5 µM (inactive)
S=C(N/N=C(/c1ccccc1)c1ccccn1)Nc1ccc(Cl)cc1 | 1.87 µM (inactive) | 0.551 µM (active) | 0.462 µM (active) | < 0.0316 µM (active) | 0.112 µM (active) | 0.0418 µM (active) | 1.05 µM (active) | 0.0258 µM (active) | 1.97 µM (inactive) | 0.109 µM (active) | 0.531 µM (active) | 0.0569 µM (active) | 3.15 µM (inactive) | 0.236 µM (active) |  | 5.06 µM (inactive) | 0.0423 µM (active) | 0.0998 µM (active) | 2.22 µM (inactive) | 3.3 µM (inactive)
Cn1c(=O)c2nc(CSCc3ccccc3)[nH]c2n(C)c1=O | > 100 µM (inactive) | > 100 µM (inactive) | 24.8 µM (inactive) | > 100 µM (inactive) | > 100 µM (inactive) | > 100 µM (inactive) | > 100 µM (inactive) | > 100 µM (inactive) | 45.6 µM (inactive) | > 100 µM (inactive) | > 100 µM (inactive) | > 100 µM (inactive) | > 100 µM (inactive) | > 100 µM (inactive) | > 100 µM (inactive) | > 100 µM (inactive) |  | 71.4 µM (inactive) | > 100 µM (inactive) | > 100 µM (inactive)
